Source: patent publication US6706663B2, “Herbicidal 3-heterocyclic substituted benzisothiazole and benzisoxazole compounds” (Wyeth, priority 2000, dated 2004)

Columns and labels:
[1] = tested on: ABUTH (Abutilon theophrasti); test: Postemergence herbicidal evaluation; type: in vivo, Medic.
Procedure, shortened: (§1)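 Seedlings grown for about two weeks were sprayed postemergence and then kept under standard greenhouse care. Injury was rated visually 4–5 weeks after treatment on a 0–9 scale against untreated controls, and ratings from repeat tests were averaged.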

[2] = tested on: AMBEL (Ambrosia artemisifolia); test: Postemergence herbicidal evaluation; type: in vivo, L.
Procedure, shortened: as §1

[3] = tested on: CASOB (Cassia obtusifolia); test: Postemergence herbicidal evaluation; type: in vivo, L.
Procedure, shortened: as §1

[4] = tested on: CHEAL (Chenopodium album); test: Postemergence herbicidal evaluation; type: in vivo, L.
Procedure, shortened: as §1

[5] = tested on: IPOHE (Ipomoea hederacea); test: Postemergence herbicidal evaluation; type: in vivo, (L.) Jacq.
Procedure, shortened: as §1

[6] = tested on: ECHCG (Echinochloa crus-galli); test: Postemergence herbicidal evaluation; type: in vivo, (L.) Beau
Procedure, shortened: as §1

ORYSAT (Rice, Tebonnet) [7] = test: Postemergence herbicidal evaluation; type: in vivo, Oryza sativa, (L.) Tebonnet
Procedure, shortened: as §1

[8] = tested on: TRZAWR (Wheat, Winter, cv Riband); test: Postemergence herbicidal evaluation; type: in vivo, Triticum aestivum
Procedure, shortened: as §1

ZEAMX (Corn, Field) = test: Postemergence herbicidal evaluation; type: in vivo, Zea mays, L.
Procedure, shortened: as §1

[9] = tested on: ABUTH (Abutilon theophrasti); test: Preemergence herbicidal evaluation; type: in vivo, Medic.; conditions: preemergence, rated 4-5 weeks after treatment
[10] = tested on: AMBEL (Ambrosia artemisifolia); test: Preemergence herbicidal evaluation; type: in vivo, L.; conditions: preemergence, rated 4-5 weeks after treatment
Procedure, shortened: (§2)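 Greenhouse preemergence test: freshly planted cups were sprayed once with an aqueous acetone solution of compound. Injury was judged visually on a 0–9 scale relative to a control, four to five weeks later.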

[11] = tested on: CASOB (Cassia obtusifolia); test: Preemergence herbicidal evaluation; type: in vivo, L.; conditions: preemergence, rated 4-5 weeks after treatment
Procedure, shortened: as §2

[12] = tested on: CHEAL (Chenopodium album); test: Preemergence herbicidal evaluation; type: in vivo, L.; conditions: preemergence, rated 4-5 weeks after treatment
Procedure, shortened: as §2

ORYSAT (Rice, Tebonnet) [13] = test: Preemergence herbicidal evaluation; type: in vivo, Oryza sativa, (L.) Tebonnet; conditions: preemergence, rated 4-5 weeks after treatment
[14] = tested on: TRZAWR (Wheat, Winter, cv Riband); test: Preemergence herbicidal evaluation; type: in vivo, Triticum aestivum; conditions: preemergence, rated 4-5 weeks after treatment
Procedure, shortened: as §2

[15] = tested on: ECHORC (Echinochloa oryzoides); test: Flooded paddy, preemergence weed control; type: in vivo, Echinochloa oryzoides (Ard.) Fritsch.; conditions: rated 3-4 weeks after treatment, 0-9 rating scale
Procedure, shortened: (§3)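 Visual 0-9 rating versus control, scoring stand, vigor, malformation, size, chlorosis and overall appearance. Silt loam soil, propagules in top 0.5 cm; flood depth 1.5–3 cm held for the whole test; greenhouse.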

[16] = tested on: CYPSE (Cyperus serotinus); test: Flooded paddy, preemergence weed control; type: in vivo, Rottb.; conditions: rated 3-4 weeks after treatment, 0-9 rating scale
Procedure, shortened: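 Seeds or propagules were planted 0.5 cm deep in silt loam and flooded to 1.5–3 cm. Compounds in 50/50 v/v aqueous/acetone were pipetted into the flood water at about 0.0080 to 0.1250 kg/ha. After 3–4 weeks in the greenhouse, effect was rated visually on a 0–9 scale versus untreated control.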

[17] = tested on: SAGPY (Sagittaria pygmaea); test: Flooded paddy, preemergence weed control; type: in vivo, L.; conditions: rated 3-4 weeks after treatment, 0-9 rating scale
Procedure, shortened: as §3

ORYSAT (Rice, Tebonnet) [18] = test: Flooded paddy, post-transplant rice tolerance; type: in vivo, Oryza sativa, (L.) Tebonnet; conditions: flooded paddy, post-transplant rice, rated 3-4 weeks after treatment, 0-9 rating scale
Procedure, shortened: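 Two ten-day-old Tebonnet rice seedlings transplanted into silt loam, then flooded with water held at 1.5–3 cm above soil; herbicide applied post-transplant. Plants kept in greenhouse and rated visually 0–9 versus untreated control for stand, vigor, malformation, size and chlorosis.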

In the case of `Cn1c(C(F)(F)F)cc(=O)n(-c2ccc3snc(-c4ccsc4)c3c2)c1=O` [Compound 1, 1-methyl-3-[3-(3-thienyl)-1,2-benzisothiazol-5-yl]-6-(trifluoromethyl)uracil], the “Postemergence herbicidal rating, ABUTH” value ([1]; rate 0.0320 kg/ha) is reported as 9.0, the “Postemergence herbicidal rating, ABUTH” value ([1]; rate 0.0620 kg/ha) is reported as 9.0 and the “Postemergence herbicidal rating, ABUTH” value ([1]; rate 0.1250 kg/ha) is reported as 9.0. For the same molecule, the “Postemergence herbicidal rating, AMBEL” value ([2]; rate 0.0320 kg/ha) was 9.0, the “Postemergence herbicidal rating, AMBEL” value ([2]; rate 0.0620 kg/ha) was 9.0 and the “Postemergence herbicidal rating, AMBEL” value ([2]; rate 0.1250 kg/ha) was 9.0. The “Postemergence herbicidal rating, CASOB” value ([3]; rate 0.0320 kg/ha) was 5.5, the “Postemergence herbicidal rating, CASOB” value ([3]; rate 0.0620 kg/ha) was 7.5 and the “Postemergence herbicidal rating, CASOB” value ([3]; rate 0.1250 kg/ha) was 9.0. For the same molecule, the “Postemergence herbicidal rating, CHEAL” value ([4]; rate 0.0320 kg/ha) was 9.0, the “Postemergence herbicidal rating, CHEAL” value ([4]; rate 0.0620 kg/ha) was 9.0 and the “Postemergence herbicidal rating, CHEAL” value ([4]; rate 0.1250 kg/ha) was 9.0. The “Postemergence herbicidal rating, IPOHE” value ([5]; rate 0.0320 kg/ha) was 9.0, the “Postemergence herbicidal rating, IPOHE” value ([5]; rate 0.0620 kg/ha) was 9.0 and the “Postemergence herbicidal rating, IPOHE” value ([5]; rate 0.1250 kg/ha) was 9.0. For the same molecule, the “Postemergence herbicidal rating, ECHCG” value ([6]; rate 0.0320 kg/ha) was 2.0, the “Postemergence herbicidal rating, ECHCG” value ([6]; rate 0.0620 kg/ha) was 2.5 and the “Postemergence herbicidal rating, ECHCG” value ([6]; rate 0.1250 kg/ha) was 4.0. For the same molecule, the “Postemergence herbicidal rating, ORYSAT” value (ORYSAT (Rice, Tebonnet) [7]; rate 0.0320 kg/ha) was 3.5, the “Postemergence herbicidal rating, ORYSAT” value (ORYSAT (Rice, Tebonnet) [7]; rate 0.0620 kg/ha) was 3.5 and the “Postemergence herbicidal rating, ORYSAT” value (ORYSAT (Rice, Tebonnet) [7]; rate 0.1250 kg/ha) was 5.0. For the same molecule, the “Postemergence herbicidal rating, TRZAWR” value ([8]; rate 0.0320 kg/ha) was 3.5, the “Postemergence herbicidal rating, TRZAWR” value ([8]; rate 0.0620 kg/ha) was 3.5 and the “Postemergence herbicidal rating, TRZAWR” value ([8]; rate 0.1250 kg/ha) was 4.3. The “Postemergence herbicidal rating, ZEAMX” value (ZEAMX (Corn, Field); rate 0.0320 kg/ha) was 5.5, the “Postemergence herbicidal rating, ZEAMX” value (ZEAMX (Corn, Field); rate 0.0620 kg/ha) was 5.8 and the “Postemergence herbicidal rating, ZEAMX” value (ZEAMX (Corn, Field); rate 0.1250 kg/ha) was 6.0. For the same molecule, the “ABUTH preemergence herbicidal rating” value ([9]; Rate 0.0620 kg/ha) was 9.0, the “ABUTH preemergence herbicidal rating” value ([9]; Rate 0.1250 kg/ha) was 9.0 and the “ABUTH preemergence herbicidal rating” value ([9]; Rate 0.2500 kg/ha) was 9.0. For the same molecule, the “AMBEL preemergence herbicidal rating” value ([10]; Rate 0.0620 kg/ha) was 7.3, the “AMBEL preemergence herbicidal rating” value ([10]; Rate 0.1250 kg/ha) was 9.0 and the “AMBEL preemergence herbicidal rating” value ([10]; Rate 0.2500 kg/ha) was 9.0. For the same molecule, the “CASOB preemergence herbicidal rating” value ([11]; Rate 0.0620 kg/ha) was 7.3, the “CASOB preemergence herbicidal rating” value ([11]; Rate 0.1250 kg/ha) was 8.3 and the “CASOB preemergence herbicidal rating” value ([11]; Rate 0.2500 kg/ha) was 8.3. The “CHEAL preemergence herbicidal rating” value ([12]; Rate 0.0620 kg/ha) was 9.0, the “CHEAL preemergence herbicidal rating” value ([12]; Rate 0.1250 kg/ha) was 9.0 and the “CHEAL preemergence herbicidal rating” value ([12]; Rate 0.2500 kg/ha) was 9.0. For the same molecule, the “ORYSAT preemergence herbicidal rating” value (ORYSAT (Rice, Tebonnet) [13]; Rate 0.0620 kg/ha) was 5.0, the “ORYSAT preemergence herbicidal rating” value (ORYSAT (Rice, Tebonnet) [13]; Rate 0.1250 kg/ha) was 5.0 and the “ORYSAT preemergence herbicidal rating” value (ORYSAT (Rice, Tebonnet) [13]; Rate 0.2500 kg/ha) was 6.5. The “TRZAWR preemergence herbicidal rating” value ([14]; Rate 0.0620 kg/ha) was 3.5, the “TRZAWR preemergence herbicidal rating” value ([14]; Rate 0.1250 kg/ha) was 4.0 and the “TRZAWR preemergence herbicidal rating” value ([14]; Rate 0.2500 kg/ha) was 5.0. The “herbicidal rating, ECHORC” value ([15]; rate 0.0080 kg/ha) was 6.0, the “herbicidal rating, ECHORC” value ([15]; rate 0.0320 kg/ha) was 9.0 and the “herbicidal rating, ECHORC” value ([15]; rate 0.1250 kg/ha) was 9.0. For the same molecule, the “herbicidal rating, CYPSE” value ([16]; rate 0.0320 kg/ha) was 3.5, the “herbicidal rating, CYPSE” value ([16]; rate 0.1250 kg/ha) was 9.0 and the “herbicidal rating, SAGPY” value ([17]; rate 0.0080 kg/ha) was 4.0. For the same molecule, the “herbicidal rating, SAGPY” value ([17]; rate 0.0320 kg/ha) was 4.0, the “herbicidal rating, SAGPY” value ([17]; rate 0.1250 kg/ha) was 5.5 and the “herbicidal rating, ORYSAT (rice tolerance)” value (ORYSAT (Rice, Tebonnet) [18]; rate 0.0080 kg/ha) was 4.0. For the same molecule, the “herbicidal rating, ORYSAT (rice tolerance)” value (ORYSAT (Rice, Tebonnet) [18]; rate 0.0320 kg/ha) was 5.5 and the “herbicidal rating, ORYSAT (rice tolerance)” value (ORYSAT (Rice, Tebonnet) [18]; rate 0.1250 kg/ha) was 7.0.
